≈ marks a conversion by molar mass, not a printed value. Calls of active or inactive are those of the source. The calls are words filed in the database; no cut-off is given here.
What was measured:
Calf thymus DNA [1] = test: Induction of calf thymus DNA double helix loss assessed as reduction in fluorescence intensity at 525 nm wavelength by acridine orange competition based assay; assay type: nucleic-acid assay; conditions: Bos taurus
Staphylococcus aureus [2] = test: Antibacterial activity against Staphylococcus aureus ATCC 29213 assessed as decrease in relative metabolic activity at 4 times of MIC by Alamar Blue assays; assay type: functional, organism-based
Staphylococcus aureus [3] = test: Anti-biofilm activity against Staphylococcus aureus ATCC 29213 assessed as relative biofilm clearance rate by crystal violet staining based assay; assay type: functional, organism-based
Klebsiella pneumoniae [4] = test: Anti-biofilm activity against Klebsiella pneumonia assessed as relative biofilm clearance rate by crystal violet staining based assay; assay type: functional, organism-based
Cell membrane [5] = test: Induction of inner membrane permeability in Klebsiella pneumonia assessed as increase in fluorescence intensity by propidium iodide uptake based microscopic imaging assay; assay type: cell membranes; conditions: Klebsiella pneumoniae
Klebsiella pneumoniae [6] = test: Antibacterial activity against Klebsiella pneumonia assessed as morphological changes by measuring shrunken and cracked cells at 4 times of MIC by SEM microscopic analysis; assay type: functional, organism-based
Cell membrane [7] = test: Induction of disruption of membrane integrity in Staphylococcus aureus ATCC 29213 assessed as leakage of intracellular proteins by Acid Blue 90 based assay; assay type: cell membranes
Klebsiella pneumoniae [8] = test: Induction of resistance development in Klebsiella pneumonia assessed as after 20 passages measured upto 4.5 times of MIC; assay type: functional
Cell membrane [9] = test: Induction of outer membrane permeability in Klebsiella pneumonia assessed as increase in fluorescence intensity at 2 times of MIC by N-phenyl naphthylamine (NPN) dye based assay; assay type: cell membranes; conditions: Klebsiella pneumoniae
Cell membrane [10] = test: Induction of cytoplasmic membrane depolarization in Staphylococcus aureus ATCC 29213 assessed as increase in fluorescence intensity at 2 times of MIC measured upto 40 mins by DiSC35 dye based fluorescence method; assay type: cell membranes
Staphylococcus aureus [11] = test: Antibacterial activity against Staphylococcus aureus ATCC 29213 assessed as morphological changes by measuring shrunken and cracked cells at 4 times of MIC by SEM microscopic analysis; assay type: functional, organism-based
Klebsiella pneumoniae [12] = test: Induction of ROS generation in Klebsiella pneumonia assessed as increase in fluorescence intensity by DCFH-DA based microscopic analysis; assay type: functional, organism-based
Klebsiella pneumoniae [13] = test: Antibacterial activity against Klebsiella pneumonia assessed as decrease in relative metabolic activity at 4 times of MIC by Alamar Blue assays; assay type: functional, organism-based
Cell membrane [14] = test: Induction of disruption of membrane integrity in Klebsiella pneumonia assessed as leakage of intracellular proteins by Acid Blue 90 based assay; assay type: cell membranes; conditions: Klebsiella pneumoniae
Staphylococcus aureus [15] = test: Induction of resistance development in Staphylococcus aureus ATCC 29213 assessed as after 20 passages measured upto 4.5 times of MIC; assay type: functional
Cell membrane [16] = test: Induction of cytoplasmic membrane depolarization in Klebsiella pneumonia assessed as increase in fluorescence intensity at 2 times of MIC measured upto 40 mins by DiSC35 dye based fluorescence method; assay type: cell membranes; conditions: Klebsiella pneumoniae
Staphylococcus aureus [17] = test: Bactericidal activity against Staphylococcus aureus ATCC 29213 assessed as time dependent killing at 4 times of MIC measured at 8 hrs; assay type: functional, organism-based
Klebsiella pneumoniae [18] = test: Induction of ROS generation in Klebsiella pneumonia assessed as loss of GSH activity by Ellmans method; assay type: functional, organism-based
Cell membrane [19] = test: Induction of inner membrane permeability in Staphylococcus aureus ATCC 29213 assessed as increase in fluorescence intensity by propidium iodide uptake based microscopic imaging assay; assay type: cell membranes
Calf thymus DNA [20] = test: Binding affinity to calf thymus DNA assessed as change in absorption by UV-Vis absorption spectra analysis; assay type: nucleic-acid assay; conditions: Bos taurus
Staphylococcus aureus [21] = test: Induction of ROS generation in Staphylococcus aureus ATCC 29213 assessed as loss of GSH activity by Ellmans method; assay type: functional, organism-based
Klebsiella pneumoniae [22] = test: Bactericidal activity against Klebsiella pneumonia assessed as time dependent killing at 4 times of MIC measured at 8 hrs; assay type: functional, organism-based
Staphylococcus aureus [23] = test: Induction of ROS generation in Staphylococcus aureus ATCC 29213 assessed as increase in fluorescence intensity by DCFH-DA based microscopic analysis; assay type: functional, organism-based
Escherichia coli [24] = test: Antibacterial activity against Escherichia coli ATCC 25922 assessed growth inhibition by micro broth dilution method; assay type: functional
Pseudomonas aeruginosa [25] = test: Antibacterial activity against Pseudomonas aeruginosa ATCC 27853 assessed growth inhibition by micro broth dilution method; assay type: functional
Enterococcus faecalis = test: Antibacterial activity against Enterococcus faecalis assessed growth inhibition by micro broth dilution method; assay type: functional
Staphylococcus aureus [26] = test: Antibacterial activity against Staphylococcus aureus assessed growth inhibition by micro broth dilution method; assay type: functional
Klebsiella pneumoniae [27] = test: Antibacterial activity against Klebsiella pneumonia assessed growth inhibition by micro broth dilution method; assay type: functional
Staphylococcus aureus [28] = test: Antibacterial activity against methicillin-resistant Staphylococcus aureus assessed growth inhibition by micro broth dilution method; assay type: functional
Staphylococcus aureus [29] = test: Antibacterial activity against Staphylococcus aureus ATCC 25923 assessed growth inhibition by micro broth dilution method; assay type: functional
Escherichia coli [30] = test: Antibacterial activity against Escherichia coli assessed growth inhibition by micro broth dilution method; assay type: functional
Acinetobacter baumannii = test: Antibacterial activity against Acinetobacter baumannii assessed growth inhibition by micro broth dilution method; assay type: functional
[31] = Hemolytic activity in human RBC assessed as hemolytic rate incubated measured upto 64 ug/ml; assay type: toxicity, cell-based, Erythrocyte; conditions: human red blood cells (erythrocytes), up to 64 µg/mL, read-out: Activity
Pseudomonas aeruginosa [32] = test: Antibacterial activity against Pseudomonas aeruginosa assessed growth inhibition by micro broth dilution method; assay type: functional
Staphylococcus aureus [33] = test: Antibacterial activity against Staphylococcus aureus ATCC 29213 assessed growth inhibition by micro broth dilution method; assay type: functional
[34] = Cytotoxicity against human FHC cells assessed as cell viability at 8 ug/ml; assay type: toxicity, cell-based; conditions: at 8 µg/mL, read-out: Activity
[35] = Cytotoxicity against human NOK cells assessed as cell viability at 8 ug/ml; assay type: toxicity, cell-based; conditions: nok-si, dose 8 µg/ml
Erythrocyte = test: Hemolytic activity in human RBC incubated measured upto 128 ug/ml; assay type: toxicity, cell-based; conditions: dose < 128 µg/ml

SMILES: CCCCCCCCn1cc(C(=O)OCC)c(=O)c2cc(F)c(C(C#N)C(=O)OCC)cc21 (stereo not given) [listing 1 of 2 here]
- Activity (Calf thymus DNA [1]): Active
- Activity (Staphylococcus aureus [2]): Active
- Activity (Staphylococcus aureus [3]): Dose-Dependent Effect
- Activity (Klebsiella pneumoniae [4]): Dose-Dependent Effect
- Activity (Cell membrane [5]): Dose-Dependent Effect
- Activity (Klebsiella pneumoniae [6]): Active
- Activity (Cell membrane [7]): Dose-Dependent Effect
- Activity (Klebsiella pneumoniae [8]): Active
- Activity (Cell membrane [9]): Dose-Dependent Effect
- Activity (Cell membrane [10]): Active
- Activity (Staphylococcus aureus [11]): Active
- Activity (Klebsiella pneumoniae [12]): Dose-Dependent Effect
- Activity (Klebsiella pneumoniae [13]): Active
- Activity (Cell membrane [14]): Dose-Dependent Effect
- Activity (Staphylococcus aureus [15]): Active
- Activity (Cell membrane [16]): Active
- Activity (Cell membrane [16]; DISRUPTING AGENT): Active
- Activity (Staphylococcus aureus [17]): Active
- Activity (Klebsiella pneumoniae [18]): Dose-Dependent Effect
- Activity (Cell membrane [19]): Dose-Dependent Effect
- Activity (Calf thymus DNA [20]): Active
- Activity (Staphylococcus aureus [21]): Dose-Dependent Effect
- Activity (Klebsiella pneumoniae [22]): Active
- Activity (Staphylococcus aureus [23]): Dose-Dependent Effect

SMILES: CCCCCCCCn1cc(C(=O)OCC)c(=O)c2cc(F)c(C(C#N)C(=O)OCC)cc21 (stereo not given) [listing 2 of 2 here]
- MIC (Escherichia coli [24]): 2 µg/mL (≈ 4.36 µM)
- MIC (Pseudomonas aeruginosa [25]): 0.5 µg/mL (≈ 1.09 µM)
- MIC (Enterococcus faecalis): 4 µg/mL (≈ 8.72 µM)
- MIC (Staphylococcus aureus [26]): 8 µg/mL (≈ 17.4 µM)
- MIC (Klebsiella pneumoniae [27]): 0.5 µg/mL (≈ 1.09 µM)
- MIC (Staphylococcus aureus [28]): 8 µg/mL (≈ 17.4 µM)
- MIC (Staphylococcus aureus [29]): 1 µg/mL (≈ 2.18 µM)
- MIC (Escherichia coli [30]): 2 µg/mL (≈ 4.36 µM)
- MIC (Acinetobacter baumannii): 0.5 µg/mL (≈ 1.09 µM)
- hemolysis [31]: 50%
- MIC (Pseudomonas aeruginosa [32]): 0.5 µg/mL (≈ 1.09 µM)
- MIC (Staphylococcus aureus [33]): 0.5 µg/mL (≈ 1.09 µM)

SMILES: CCOC(=O)c1cn(Cc2ccc(Cl)cc2Cl)c2cc([C-](C#N)C(=O)OCC)c(F)cc2c1=O.[Na+] (stereo not given)
- viability at 8 ug/ml [34]: 70%
- MIC (Escherichia coli [24]): 0.25 µg/mL
- MIC (Pseudomonas aeruginosa [25]): 0.5 µg/mL
- MIC (Enterococcus faecalis): 1 µg/mL
- MIC (Staphylococcus aureus [26]): 32 µg/mL
- MIC (Klebsiella pneumoniae [27]): 0.25 µg/mL
- MIC (Staphylococcus aureus [28]): 16 µg/mL
- Activity [35]: Non-Toxic
- MIC (Staphylococcus aureus [29]): 0.25 µg/mL
- MIC (Escherichia coli [30]): 0.5 µg/mL
- Activity (Erythrocyte): Non-Toxic
- MIC (Acinetobacter baumannii): 2 µg/mL
- MIC (Pseudomonas aeruginosa [32]): 4 µg/mL
- MIC (Staphylococcus aureus [33]): 0.25 µg/mL

Source: ChEMBL document CHEMBL5528028, “Discovery of benzopyridone cyanoacetates as new type of potential broad-spectrum antibacterial candidates” (Eur J Med Chem, 2024)
